Drawing on ChEMBL document CHEMBL1128987, “Benzenesulfonamide-peptide conjugates as probes for secondary binding sites near the active site of carbonic anhydrase” (Bioorg Med Chem Lett, 1996), this text covers Kd for 85 compounds.

This test concerns the target Carbonic anhydrase 2 (Homo sapiens, UniProt P00918). Nature of the test: Dissociation constant against human carbonic anhydrase II at 37 degree Centigrade.
`CC(O)C(NC(=O)c1ccc(S(N)(=O)=O)cc1)C(=O)O` (stereo not given) showed a Kd of 53 nM.
`CC(O)C(NC(=O)CNC(=O)c1ccc(S(N)(=O)=O)cc1)C(=O)O` (stereo not given): the Kd came to 320 nM.
The compound `CCCCC(NC(=O)CNC(=O)c1ccc(S(N)(=O)=O)cc1)C(=O)O` (stereo not given) had a dissociation constant (Kd) of 140 nM.
To `NC(=O)CC(NC(=O)c1ccc(S(N)(=O)=O)cc1)C(=O)O` (stereo not given) belongs 380 nM.
The compound `CC(C)[C@H](NC(=O)CNC(=O)CNC(=O)c1ccc(S(N)(=O)=O)cc1)C(=O)O` displayed a Kd of 260 nM.
As for `NS(=O)(=O)c1ccc(C(=O)NCC(=O)NCC(=O)NCC(=O)N[C@@H](Cc2ccccc2)C(=O)O)cc1`, the Kd came to 200 nM.
Consider `NS(=O)(=O)c1ccc(C(=O)NC(Cc2ccc3ccccc3c2)C(=O)O)cc1` (stereo not given), for which the Kd is 17 nM.
`NS(=O)(=O)c1ccc(C(=O)NCC(=O)NCC(=O)N[C@@H](CC(=O)O)C(=O)O)cc1` registered a dissociation constant (Kd) of 400 nM.
Turning to `N=C(N)NCCC[C@H](NC(=O)CNC(=O)CNC(=O)c1ccc(S(N)(=O)=O)cc1)C(=O)O`, the dissociation constant (Kd) worked out at 300 nM.
Take `NS(=O)(=O)c1ccc(C(=O)NCC(=O)NCC(=O)NC(Cc2ccc3ccccc3c2)C(=O)O)cc1` (stereo not given): the dissociation constant Kd is 160 nM.
For the compound `NS(=O)(=O)c1ccc(C(=O)NCC(=O)NCC(=O)N[C@@H](CCC(=O)O)C(=O)O)cc1`, the affinity, expressed as Kd, was 372 nM.
For `CSCC[C@@H](NC(=O)CNC(=O)CNC(=O)CNC(=O)c1ccc(S(N)(=O)=O)cc1)C(=O)O` the value was 220 nM.
For `NS(=O)(=O)c1ccc(C(=O)N2CCCC2C(=O)O)cc1` (stereo not given) the value was 230 nM; for `CC(C)(C)[C@H](NC(=O)CNC(=O)CNC(=O)c1ccc(S(N)(=O)=O)cc1)C(=O)O`, 240 nM.
`NS(=O)(=O)c1ccc(C(=O)NC(CCC(=O)O)C(=O)O)cc1` (stereo not given) yielded a Kd of 530 nM. Against the preceding compound, the Kd is about 2.2-fold higher.
For `NC(=O)CCC(NC(=O)CNC(=O)c1ccc(S(N)(=O)=O)cc1)C(=O)O` (stereo not given), the equilibrium dissociation constant (Kd) amounted to 240 nM.
`CSCC[C@@H](NC(=O)CNC(=O)CNC(=O)c1ccc(S(N)(=O)=O)cc1)C(=O)O` gave a dissociation constant Kd of 160 nM. This Kd lies about 1.5-fold lower than the previous one.
`NS(=O)(=O)c1ccc(C(=O)NCC(=O)NCC(=O)N[C@@H](CO)C(=O)O)cc1` had a dissociation constant (Kd) of 290 nM. Against the preceding compound, the Kd is about 1.8-fold higher.
To `NS(=O)(=O)c1ccc(C(=O)NCC(=O)NCC(=O)NCC(=O)N[C@@H](CC(=O)O)C(=O)O)cc1` belongs 300 nM; to `NS(=O)(=O)c1ccc(C(=O)NCC(=O)NC(Cc2ccc(F)cc2)C(=O)O)cc1` (stereo not given), 130 nM; to `NS(=O)(=O)c1ccc(C(=O)NCC(=O)NC(Cc2ccc(Cl)cc2)C(=O)O)cc1` (stereo not given), 100 nM.
For `NS(=O)(=O)c1ccc(C(=O)NCC(=O)NCC(=O)N[C@@H](Cc2ccccc2)C(=O)O)cc1` the value was 140 nM; for `NS(=O)(=O)c1ccc(C(=O)NC(Cc2ccc([N+](=O)[O-])cc2)C(=O)O)cc1` (stereo not given), 22 nM; for `CC(C)C[C@H](NC(=O)CNC(=O)CNC(=O)c1ccc(S(N)(=O)=O)cc1)C(=O)O`, 210 nM.
As for `NS(=O)(=O)c1ccc(C(=O)NCC(=O)NC(Cc2ccccc2)C(=O)O)cc1` (stereo not given), the equilibrium dissociation constant (Kd) amounted to 140 nM.
For `COc1ccc(CC(NC(=O)CNC(=O)c2ccc(S(N)(=O)=O)cc2)C(=O)O)cc1` (stereo not given) the value was 170 nM.
The compound `CC(C)(C)C(NC(=O)c1ccc(S(N)(=O)=O)cc1)C(=O)O` (stereo not given) came in with a Kd of 9 nM.
To `NS(=O)(=O)c1ccc(C(=O)NCC(=O)NC(Cc2ccc3ccccc3c2)C(=O)O)cc1` (stereo not given) belongs 130 nM.
Compound `NS(=O)(=O)c1ccc(C(=O)NCC(=O)N2CCCC2C(=O)O)cc1` (stereo not given) showed a Kd of 250 nM.
For `NC(=O)CC[C@H](NC(=O)CNC(=O)CNC(=O)CNC(=O)c1ccc(S(N)(=O)=O)cc1)C(=O)O` the value was 280 nM.
For `C[C@H](NC(=O)CNC(=O)CNC(=O)c1ccc(S(N)(=O)=O)cc1)C(=O)O` the value was 250 nM; for `NS(=O)(=O)c1ccc(C(=O)NCC(=O)NCC(=O)N[C@@H](Cc2ccc([N+](=O)[O-])cc2)C(=O)O)cc1`, 130 nM.
Compound `CC(C)[C@H](NC(=O)CNC(=O)CNC(=O)CNC(=O)c1ccc(S(N)(=O)=O)cc1)C(=O)O` showed a Kd of 290 nM. Compared with the last compound, the Kd is about 2.2-fold higher.
`NS(=O)(=O)c1ccc(C(=O)NCC(=O)NCC(=O)NCC(=O)N2CCC[C@H]2C(=O)O)cc1` yielded a Kd of 330 nM.
Take `NS(=O)(=O)c1ccc(C(=O)NC(CO)C(=O)O)cc1` (stereo not given): the affinity, expressed as Kd, was 240 nM. This Kd and that of the compound before are within 1.5-fold of each other.
For `NS(=O)(=O)c1ccc(C(=O)NCC(=O)NCC(=O)N2CCC[C@H]2C(=O)O)cc1` the value was 340 nM; for `COc1ccc(CC(NC(=O)c2ccc(S(N)(=O)=O)cc2)C(=O)O)cc1` (stereo not given), 27 nM; for `CC(NC(=O)c1ccc(S(N)(=O)=O)cc1)C(=O)O` (stereo not given), 120 nM.
For `NS(=O)(=O)c1ccc(C(=O)NCC(=O)NC(Cc2ccc([N+](=O)[O-])cc2)C(=O)O)cc1` (stereo not given) the value was 150 nM; for `N=C(N)NCCCC(NC(=O)c1ccc(S(N)(=O)=O)cc1)C(=O)O` (stereo not given), 220 nM.
To `Nc1ccc(CC(NC(=O)CNC(=O)c2ccc(S(N)(=O)=O)cc2)C(=O)O)cc1` (stereo not given) belongs 330 nM; to `CC(C)C(NC(=O)CNC(=O)c1ccc(S(N)(=O)=O)cc1)C(=O)O` (stereo not given), 140 nM; to `NS(=O)(=O)c1ccc(C(=O)NCC(=O)NC(CO)C(=O)O)cc1` (stereo not given), 280 nM.
On to `CCC(C)C(NC(=O)c1ccc(S(N)(=O)=O)cc1)C(=O)O` (stereo not given), for which the Kd was found to be 9 nM.
`N=C(N)NCCCC(NC(=O)CNC(=O)c1ccc(S(N)(=O)=O)cc1)C(=O)O` (stereo not given): the dissociation constant (Kd) turned out to be 190 nM.
For `NS(=O)(=O)c1ccc(C(=O)NCC(=O)NCC(=O)N[C@@H](Cc2ccc(Cl)cc2)C(=O)O)cc1` the value was 94 nM; for `CC[C@H](C)[C@H](NC(=O)CNC(=O)CNC(=O)CNC(=O)c1ccc(S(N)(=O)=O)cc1)C(=O)O`, 230 nM; for `CSCCC(NC(=O)CNC(=O)c1ccc(S(N)(=O)=O)cc1)C(=O)O` (stereo not given), 160 nM.
Compound `CC(C)CC(NC(=O)c1ccc(S(N)(=O)=O)cc1)C(=O)O` (stereo not given) had a Kd of 9 nM.
For `NC(=O)CCC(NC(=O)c1ccc(S(N)(=O)=O)cc1)C(=O)O` (stereo not given) the value was 140 nM; for `NS(=O)(=O)c1ccc(C(=O)NCC(=O)NCC(=O)O)cc1`, 290 nM; for `NS(=O)(=O)c1ccc(C(=O)NC(Cc2ccccc2)C(=O)O)cc1` (stereo not given), 13 nM.
For `CCCC[C@H](NC(=O)CNC(=O)CNC(=O)c1ccc(S(N)(=O)=O)cc1)C(=O)O` the value was 140 nM.
To `NC(=O)CC[C@H](NC(=O)CNC(=O)CNC(=O)c1ccc(S(N)(=O)=O)cc1)C(=O)O` belongs 270 nM.
Turning to `CSCCC(NC(=O)c1ccc(S(N)(=O)=O)cc1)C(=O)O` (stereo not given), binding was characterised by a dissociation constant (Kd) of 10 nM.
For `Nc1ccc(C[C@H](NC(=O)CNC(=O)CNC(=O)c2ccc(S(N)(=O)=O)cc2)C(=O)O)cc1` the value was 210 nM; for `NC(=O)C[C@H](NC(=O)CNC(=O)CNC(=O)CNC(=O)c1ccc(S(N)(=O)=O)cc1)C(=O)O`, 290 nM; for `CC(C)C(NC(=O)c1ccc(S(N)(=O)=O)cc1)C(=O)O` (stereo not given), 15 nM.
To `NS(=O)(=O)c1ccc(C(=O)NCC(=O)NCC(=O)NCC(=O)N[C@@H](Cc2ccc(F)cc2)C(=O)O)cc1` belongs 140 nM; to `CC[C@H](C)[C@H](NC(=O)CNC(=O)CNC(=O)c1ccc(S(N)(=O)=O)cc1)C(=O)O`, 230 nM.
Compound `NS(=O)(=O)c1ccc(C(=O)NCC(=O)NCC(=O)NCC(=O)N[C@@H](Cc2ccc([N+](=O)[O-])cc2)C(=O)O)cc1` had a Kd of 160 nM.
For `NC(=O)C[C@H](NC(=O)CNC(=O)CNC(=O)c1ccc(S(N)(=O)=O)cc1)C(=O)O`, the affinity, expressed as Kd, was 270 nM.
On to `N=C(N)NCCC[C@H](NC(=O)CNC(=O)CNC(=O)CNC(=O)c1ccc(S(N)(=O)=O)cc1)C(=O)O`, for which the Kd is 290 nM.
For `Nc1ccc(CC(NC(=O)c2ccc(S(N)(=O)=O)cc2)C(=O)O)cc1` (stereo not given) the value was 64 nM.
To `COc1ccc(C[C@H](NC(=O)CNC(=O)CNC(=O)CNC(=O)c2ccc(S(N)(=O)=O)cc2)C(=O)O)cc1` belongs 170 nM; to `CCC(C)C(NC(=O)CNC(=O)c1ccc(S(N)(=O)=O)cc1)C(=O)O` (stereo not given), 160 nM.
Consider `NS(=O)(=O)c1ccc(C(=O)NCC(=O)NC(CCC(=O)O)C(=O)O)cc1` (stereo not given), for which the equilibrium dissociation constant (Kd) stood at 500 nM.
For the compound `C[C@H](NC(=O)CNC(=O)CNC(=O)CNC(=O)c1ccc(S(N)(=O)=O)cc1)C(=O)O`, the Kd was 300 nM.
To `COc1ccc(C[C@H](NC(=O)CNC(=O)CNC(=O)c2ccc(S(N)(=O)=O)cc2)C(=O)O)cc1` belongs 170 nM.
With `NS(=O)(=O)c1ccc(C(=O)NCC(=O)NCC(=O)NCC(=O)N[C@@H](CO)C(=O)O)cc1`, the equilibrium dissociation constant (Kd) was 360 nM.
Consider `NS(=O)(=O)c1ccc(C(=O)NCC(=O)NCC(=O)N[C@@H](Cc2ccc(F)cc2)C(=O)O)cc1`, for which the Kd stood at 120 nM.
Consider `NS(=O)(=O)c1ccc(C(=O)NCC(=O)NCC(=O)NCC(=O)O)cc1`, for which the Kd was 230 nM.
To `C[C@@H](O)[C@H](NC(=O)CNC(=O)CNC(=O)c1ccc(S(N)(=O)=O)cc1)C(=O)O` belongs 330 nM; to `NC(=O)CC(NC(=O)CNC(=O)c1ccc(S(N)(=O)=O)cc1)C(=O)O` (stereo not given), 290 nM.
For `NS(=O)(=O)c1ccc(C(=O)NC(CC(=O)O)C(=O)O)cc1` (stereo not given) the value was 1100 nM.
Regarding `NS(=O)(=O)c1ccc(C(=O)NCC(=O)NC(CC(=O)O)C(=O)O)cc1` (stereo not given), the equilibrium dissociation constant (Kd) stood at 420 nM. Against the preceding compound, the Kd is about 2.6-fold lower.
To `CC(C)C[C@H](NC(=O)CNC(=O)CNC(=O)CNC(=O)c1ccc(S(N)(=O)=O)cc1)C(=O)O` belongs 210 nM; to `C[C@@H](O)[C@H](NC(=O)CNC(=O)CNC(=O)CNC(=O)c1ccc(S(N)(=O)=O)cc1)C(=O)O`, 330 nM; to `Nc1ccc(C[C@H](NC(=O)CNC(=O)CNC(=O)CNC(=O)c2ccc(S(N)(=O)=O)cc2)C(=O)O)cc1`, 190 nM.
On to `CC(C)(C)C(NC(=O)CNC(=O)c1ccc(S(N)(=O)=O)cc1)C(=O)O` (stereo not given), for which the dissociation constant (Kd) was determined as 150 nM.
Take `C[C@H](NC(=O)CNC(=O)c1ccc(S(N)(=O)=O)cc1)C(=O)O`: the equilibrium dissociation constant (Kd) amounted to 170 nM.
The compound `NS(=O)(=O)c1ccc(C(=O)NC(Cc2ccc(F)cc2)C(=O)O)cc1` (stereo not given) came in with an equilibrium dissociation constant (Kd) of 17 nM.
In turn, `CC(C)(C)[C@H](NC(=O)CNC(=O)CNC(=O)CNC(=O)c1ccc(S(N)(=O)=O)cc1)C(=O)O` came in with an equilibrium dissociation constant (Kd) of 210 nM.
To `NS(=O)(=O)c1ccc(C(=O)NCC(=O)NCC(=O)NCC(=O)N[C@@H](CCC(=O)O)C(=O)O)cc1` belongs 371 nM; to `NS(=O)(=O)c1ccc(C(=O)NCC(=O)NCC(=O)NCC(=O)N[C@@H](Cc2ccc3ccccc3c2)C(=O)O)cc1`, 160 nM.

As a reminder, the Kd is the concentration at which binding is half-saturated. A lower Kd goes with tighter binding.
